Laboratory results reported in article PMC8708872, “Discovery of a Novel Template, 7-Substituted 7-Deaza-4′-Thioadenosine Derivatives as Multi-Kinase Inhibitors” (Pharmaceuticals, 2021).

Assays:
[1] = tested on: KM12; assay: Antiproliferative activity against KM12; format: cell-based; conditions: Homo sapiens, colon cancer cell line highly expressing NTRK1/2/3 and DYRK3, read-out: IC50 cell growth of KM12
[2] = tested on: ACHN; assay: Antiproliferative activity against ACHN; format: cell-based; conditions: Homo sapiens, renal cancer cell line expressing CK1δ and DYRK2, read-out: IC50 cell growth of ACHN
[3] = biological target: T1, CYP1A2 (Homo sapiens, UniProt P05177); assay: CYP inhibition assay; format: in vitro ADME; conditions: human, human liver microsomes, pH 7.4, probe Phenacetin 50 μM (in a cocktail of five substrates); inhibitor 0.1 μM; read-out: Percentage of enzyme remaining after inhibition, CYP1A2
T1 construct: Human liver microsomes (0.25 mg/mL); from tissue; host or cells: human liver microsomes
Description: (§1) Human liver microsomes (0.25 mg/mL), 0.1 M phosphate buffer (pH 7.4), a cocktail of five […] substrates (Phenacetin 50 μM, Diclofenac 10 μM, S-mephenytoin 100 μM, Dextromethorphan 5 μM, Midazolam 2.5 μM), and test compound (10 μM concentration) was pre-incubated for 5 min at 37 °C. NADPH generation system solution was added and incubated for 15 min at 37 °C. In order to terminate the reaction, acetonitrile solution containing an internal standard (Terfenadine) was added and centrifuged for 5 min (14,000× g […], 4 °C). The supernatant was injected into the LC-MS/MS system to analyze the metabolites of the substrates simultaneously. Metabolites of each substrate produced during the reaction were analyzed using the Shimadzu Nexera XR system and TSQ vantage (Thermo). Kinetex C18 column (2.1 × 100 mm, 2.6 μm particle size; Phenomenex, USA) was used for HPLC. The mobile phase used contained 0.1% formic acid in distilled water (A) and 0.1% formic acid containing acetonitrile (B). The generated metabolites were quantified using MRM (Multiple Reaction Monitoring) and Xcalibur (version 1.6.1) was used for data analysis.

[4] = biological target: T2, CYP2C19 (Homo sapiens, UniProt P33261); assay: CYP inhibition assay; format: in vitro ADME; conditions: human, human liver microsomes, pH 7.4, probe S-mephenytoin 100 μM (in a cocktail of five substrates); inhibitor 0.1 μM; read-out: Percentage of enzyme remaining after inhibition, CYP2C19
T2 construct: Human liver microsomes (0.25 mg/mL); from tissue; host or cells: human liver microsomes
Description: as §1

[5] = biological target: T3, CYP2C9 (Homo sapiens, UniProt P11712); assay: CYP inhibition assay; format: in vitro ADME; conditions: human, human liver microsomes, pH 7.4, probe Diclofenac 10 μM (in a cocktail of five substrates); inhibitor 0.1 μM; read-out: Percentage of enzyme remaining after inhibition, CYP2C9
T3 construct: Human liver microsomes (0.25 mg/mL); from tissue; host or cells: human liver microsomes
Description: as §1

[6] = tested on: A549; assay: SRB cell proliferation inhibition assay; format: cell-based; conditions: human lung cancer cells, 72 h
Description: (§2) Human lung cancer cells (A549), colorectal cancer (HCT116) cells, breast cancer cells (MDA-MB-231), liver cancer cells (SK-HEP-1), and prostate cancer cells (PC-3) were purchased from the American Type Culture Collection (Manassas, VA, USA). Human gastric cancer cells (SNU-638) were purchased from the Korean Cell Line Bank (Seoul, Korea). Cells were cultured in medium (Dulbecco’s modified Eagle’s medium for MDA-MB-231 and SK-HEP-1 cells; Roswell Park Memorial Institute 1640 for A549, HCT116, SNU-638, PC-3 cells) supplemented with penicillin-streptomycin and 10% fetal bovine serum at 37 °C in a humidified incubator with 5% carbon dioxide. Cells were seeded at a density of 4–7 × 10^4 cells/mL in 96-well culture plates, and then treated with indicated compounds for 72 h. At the end of the experiment, cells were fixed with 10% trichloroacetic acid (TCA) solution and subjected to sulforhodamine B (SRB) assay to determine cell proliferation. The percentage of cell proliferation was calculated with the following formula:Cell proliferation (%) = 100 × [(A treated − A zero day)/(A control − A zero day)], where A is the average absorbance. The IC50 values were calculated through non-linear regression analysis using TableCurve 2D v5.01 (Systat Software Inc., San Jose, CA, USA). All experiments were performed in triplicate and data shown are representative of two or three independent experiments.

[7] = tested on: HCT116; assay: SRB cell proliferation inhibition assay; format: cell-based; conditions: HCT-116, human colon cancer cells, 72 h
Description: as §2

[8] = tested on: MDA-MB-231; assay: SRB cell proliferation inhibition assay; format: cell-based; conditions: human breast cancer cells, 72 h
Description: as §2

[9] = tested on: PC-3; assay: SRB cell proliferation inhibition assay; format: cell-based; conditions: human prostate cancer cells, 72 h
Description: as §2

[10] = tested on: SK-HEP-1; assay: SRB cell proliferation inhibition assay; format: cell-based; conditions: SK-HEP1, human liver cancer cells, 72 h
Description: as §2

[11] = tested on: SNU638; assay: SRB cell proliferation inhibition assay; format: cell-based; conditions: SNU-638, human stomach cancer cells, 72 h
Description: as §2

[12] = biological target: T4, TRKA (Homo sapiens, UniProt P04629); assay: Kinase inhibition profile, KINOMEscan 11-point dose response; format: binding; conditions: for IC50: 11-point 3-fold serial dilution
T4 construct: purchased Eurofins DiscoverX Corporation

[13] = biological target: T5, CK1δ (Homo sapiens, UniProt P48730); assay: as above; format: binding; conditions: for IC50: 11-point 3-fold serial dilution; for Ki: by Cheng-Prusoff equation
T5 construct: purchased Eurofins DiscoverX Corporation

[14] = biological target: T6, DYRK1A (Homo sapiens, UniProt Q13627); assay: as above; format: binding; conditions: for IC50: 11-point 3-fold serial dilution
T6 construct: purchased Eurofins DiscoverX Corporation

[15] = biological target: T7, DYRK1B (Homo sapiens, UniProt Q9Y463); assay: as above; format: binding; conditions: for IC50: 11-point 3-fold serial dilution
T7 construct: purchased Eurofins DiscoverX Corporation
T7 sequence (Q9Y463 whole entry): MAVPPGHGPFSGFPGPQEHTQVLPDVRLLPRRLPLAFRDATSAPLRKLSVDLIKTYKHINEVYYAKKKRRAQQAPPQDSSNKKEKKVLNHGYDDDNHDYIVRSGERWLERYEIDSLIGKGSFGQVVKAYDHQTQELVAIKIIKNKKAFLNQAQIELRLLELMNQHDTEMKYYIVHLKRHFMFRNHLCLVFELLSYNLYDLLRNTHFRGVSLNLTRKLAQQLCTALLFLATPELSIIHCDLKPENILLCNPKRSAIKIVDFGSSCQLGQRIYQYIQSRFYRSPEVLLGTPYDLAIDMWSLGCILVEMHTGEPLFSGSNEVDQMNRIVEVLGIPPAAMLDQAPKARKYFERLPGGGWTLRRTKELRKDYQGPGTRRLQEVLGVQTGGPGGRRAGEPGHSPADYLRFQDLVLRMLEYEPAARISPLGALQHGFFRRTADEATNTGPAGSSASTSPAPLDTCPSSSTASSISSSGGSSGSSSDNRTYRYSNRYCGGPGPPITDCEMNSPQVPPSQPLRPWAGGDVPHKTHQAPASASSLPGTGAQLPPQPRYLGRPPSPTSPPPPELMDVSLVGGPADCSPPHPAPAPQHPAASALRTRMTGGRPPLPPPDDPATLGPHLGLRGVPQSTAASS

T5 sequence (P48730 whole entry): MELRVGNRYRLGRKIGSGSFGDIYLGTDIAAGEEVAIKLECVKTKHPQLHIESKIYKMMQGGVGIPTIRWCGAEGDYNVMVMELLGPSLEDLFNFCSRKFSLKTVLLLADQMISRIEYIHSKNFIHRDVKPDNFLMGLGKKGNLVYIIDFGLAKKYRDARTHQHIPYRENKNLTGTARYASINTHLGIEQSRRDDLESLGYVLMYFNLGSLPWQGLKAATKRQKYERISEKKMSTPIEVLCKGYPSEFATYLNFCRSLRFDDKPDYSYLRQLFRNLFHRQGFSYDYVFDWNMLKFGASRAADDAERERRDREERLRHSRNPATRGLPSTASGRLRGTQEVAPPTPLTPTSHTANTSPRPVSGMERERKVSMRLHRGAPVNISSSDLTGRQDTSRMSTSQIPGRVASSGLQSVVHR
T4 sequence (P04629 33-796): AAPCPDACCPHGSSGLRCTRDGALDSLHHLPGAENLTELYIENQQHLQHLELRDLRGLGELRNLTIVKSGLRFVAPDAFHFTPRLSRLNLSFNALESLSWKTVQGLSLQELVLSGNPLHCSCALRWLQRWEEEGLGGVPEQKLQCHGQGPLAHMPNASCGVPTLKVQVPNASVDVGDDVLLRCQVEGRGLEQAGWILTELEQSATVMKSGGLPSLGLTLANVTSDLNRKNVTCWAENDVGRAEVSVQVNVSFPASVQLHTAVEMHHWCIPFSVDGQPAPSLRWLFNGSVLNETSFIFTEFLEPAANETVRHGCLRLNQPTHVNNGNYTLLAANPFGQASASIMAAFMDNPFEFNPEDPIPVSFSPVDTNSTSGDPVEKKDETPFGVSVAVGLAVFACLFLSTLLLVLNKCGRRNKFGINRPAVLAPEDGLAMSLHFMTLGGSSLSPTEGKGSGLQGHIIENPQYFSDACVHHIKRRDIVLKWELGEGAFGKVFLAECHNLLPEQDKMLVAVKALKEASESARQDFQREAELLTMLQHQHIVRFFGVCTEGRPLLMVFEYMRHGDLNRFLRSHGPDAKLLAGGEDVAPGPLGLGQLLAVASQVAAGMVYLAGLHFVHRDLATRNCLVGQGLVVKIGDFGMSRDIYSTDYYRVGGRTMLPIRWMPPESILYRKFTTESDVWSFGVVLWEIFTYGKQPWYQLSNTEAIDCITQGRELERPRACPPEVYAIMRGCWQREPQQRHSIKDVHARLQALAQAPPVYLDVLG
T3 sequence (P11712 whole entry): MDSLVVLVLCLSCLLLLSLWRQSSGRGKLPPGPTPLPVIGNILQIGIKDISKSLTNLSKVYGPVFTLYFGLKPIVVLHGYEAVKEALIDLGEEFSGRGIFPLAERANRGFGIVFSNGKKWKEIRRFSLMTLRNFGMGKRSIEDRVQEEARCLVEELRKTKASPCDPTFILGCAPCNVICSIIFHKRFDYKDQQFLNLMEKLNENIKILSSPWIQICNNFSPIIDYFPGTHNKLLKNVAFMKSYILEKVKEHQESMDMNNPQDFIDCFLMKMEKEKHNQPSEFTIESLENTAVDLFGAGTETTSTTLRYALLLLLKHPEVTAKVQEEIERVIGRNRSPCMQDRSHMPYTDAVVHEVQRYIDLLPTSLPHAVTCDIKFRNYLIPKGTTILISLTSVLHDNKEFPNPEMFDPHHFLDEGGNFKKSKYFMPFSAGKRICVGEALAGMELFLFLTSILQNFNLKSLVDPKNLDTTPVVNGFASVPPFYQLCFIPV
T2 sequence (P33261 whole entry): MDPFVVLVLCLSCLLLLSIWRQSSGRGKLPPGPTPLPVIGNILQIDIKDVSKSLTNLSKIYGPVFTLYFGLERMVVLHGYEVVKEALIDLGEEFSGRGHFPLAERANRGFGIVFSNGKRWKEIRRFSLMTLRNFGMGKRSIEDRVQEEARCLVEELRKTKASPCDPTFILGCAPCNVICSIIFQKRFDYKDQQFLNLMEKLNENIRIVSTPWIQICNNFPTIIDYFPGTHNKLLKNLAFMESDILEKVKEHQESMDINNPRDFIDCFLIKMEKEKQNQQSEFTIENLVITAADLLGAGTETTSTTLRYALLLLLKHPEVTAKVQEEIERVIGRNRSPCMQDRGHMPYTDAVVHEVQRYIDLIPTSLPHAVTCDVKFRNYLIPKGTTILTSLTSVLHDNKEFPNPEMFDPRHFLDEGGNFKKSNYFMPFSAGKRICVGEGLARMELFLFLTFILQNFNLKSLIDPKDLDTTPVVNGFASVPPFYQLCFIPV
T1 sequence (P05177 whole entry): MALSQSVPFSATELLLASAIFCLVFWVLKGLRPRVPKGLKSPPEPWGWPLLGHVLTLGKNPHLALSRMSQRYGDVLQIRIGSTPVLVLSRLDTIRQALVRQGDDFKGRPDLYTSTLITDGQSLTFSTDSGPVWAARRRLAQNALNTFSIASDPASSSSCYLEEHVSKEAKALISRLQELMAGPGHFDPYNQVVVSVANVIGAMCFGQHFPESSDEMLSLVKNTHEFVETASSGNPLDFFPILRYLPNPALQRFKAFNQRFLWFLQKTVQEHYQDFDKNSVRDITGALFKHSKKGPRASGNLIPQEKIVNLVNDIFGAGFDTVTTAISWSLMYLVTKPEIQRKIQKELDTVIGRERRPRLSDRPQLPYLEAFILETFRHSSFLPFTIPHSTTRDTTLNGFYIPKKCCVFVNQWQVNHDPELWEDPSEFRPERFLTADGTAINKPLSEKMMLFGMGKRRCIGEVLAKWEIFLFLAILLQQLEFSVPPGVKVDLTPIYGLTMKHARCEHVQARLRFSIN

Row | IC50 [2] | remaining at 15 min, 0.1 μM [3] | remaining at 15 min, 0.1 μM [4] | remaining at 15 min, 0.1 μM [5] | IC50 [6] | IC50 [7] | IC50 [8] | IC50 [9] | IC50 [10] | IC50 [11] | IC50 [12] | IC50 [13] | Ki [13] | IC50 [14] | IC50 [15] | melting point | Ki ([12]; by Cheng-Prusoff equation) | Ki ([14]; by Cheng-Prusoff equation) | Ki ([15]; by Cheng-Prusoff equation) | SMILES | IC50 [1]
1 | 40 nM |  |  |  |  |  |  |  |  |  |  |  |  |  |  |  |  |  |  | COc1cccc2c1C(=O)c1c(O)c3c(c(O)c1C2=O)C[C@@](O)(C(=O)CO)C[C@@H]3O[C@H]1C[C@H](N)[C@H](O)[C@H](C)O1 [doxorubicin, reference compound] | 120 nM
2 |  | 95.7% | 93.6% | 93.6% |  |  |  |  |  |  |  |  |  |  |  |  |  |  |  | CC(=O)N1CCN(c2ccc(OCC3COC(Cn4ccnc4)(c4ccc(Cl)cc4Cl)O3)cc2)CC1 (centres unmarked) [Ketoconazole, reference compound] | 
3 |  |  |  |  | > 50000 nM | > 50000 nM | 30600 nM | > 50000 nM | 8310 nM | > 50000 nM | 393 nM | 1780 nM | 1780 nM | > 10000 nM | > 10000 nM | 166 to 168 °C |  |  |  | Nc1ncnc2c1c(C#CC1CC1)cn2[C@@H]1S[C@H](CO)[C@@H](O)[C@H]1O [Compound 1k, (2R,3R,4S,5R)-2-(4-Amino-5-(cyclopropylethynyl)-7H-pyrrolo[2,3-d]pyrimidin-7-yl)-5-(hydroxymethyl)tetrahydrothiophene-3,4-diol] | 
4 |  |  |  |  | 7570 nM | 6350 nM | 8830 nM | 9210 nM | 7810 nM | 6320 nM | 157 nM | 27 nM | 27 nM | 357 nM | 288 nM | 102 to 104 °C | 314 nM | 714 nM | 288 nM | Nc1ncnc2c1c(-c1ccccc1)cn2[C@@H]1S[C@H](CO)[C@@H](O)[C@H]1O [Compound 1d, (2R,3R,4S,5R)-2-(4-Amino-5-phenyl-7H-pyrrolo[2,3-d]pyrimidin-7-yl)-5-(hydroxymethyl)tetrahydrothiophene-3,4-diol] | 
